Reference: patent US20250304549A1, “HYDROXYAMIDE DERIVATIVE AND USE THEREOF” (SICHUAN HUIYU PHARMACEUTICAL CO., LTD., priority 2022, published 2025)
pIC50: −log10 of the molar value. Counter-ions that a name gives are not always drawn.

Legend:
LSD1 = LSD1 (Homo sapiens (Human), UniProt O60341); assay: In vitro enzyme inhibition assay - LSD1 (HTRF); type: biochemical
pan-HDAC = assay: In vitro enzyme inhibition assay - HDAC (HDAC-Glo I/II), pan-HDAC; type: biochemical
Summary of the method: (§1)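 Eight compound concentrations (5-fold gradient; 1 mM DMSO stock) were assayed by HDAC-Glo I/II luminescence. IC50 was obtained by four-parameter fitting.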

HDAC1 = HDAC1 (Homo sapiens (Human), UniProt Q13547); assay: In vitro enzyme inhibition assay - HDAC (HDAC-Glo I/II), HDAC1; type: biochemical; details: read-out: HDAC IC50 (nM) HDAC 1
Description: 2. In Vitro Enzyme Inhibition Assay—HDAC
The effect of the compound on the enzymatic activity of pan-HDAC and two isoforms (HDAC1 and HDAC8) was examined using the HDAC-Glo I/II Assay and Screening System assay to assess the level of inhibition of HDAC protease activity and selectivity in each isoform. The proteins and detection reagents were from the HDAC-Glo™ I/II Assay and Screening System (Promega). A 1 mM stock solution of the compound was prepared in DMSO and diluted in a 5-fold gradient to create a series of 8 concentrations, and a specific volume of the highest concentration was diluted 25 times with HDAC Buffer to obtain 4× working solution of the compound. […] The 384-well plate was then read on a multifunctional microplate reader, with the Luminescence channel selected to record Luminescence values (RLU). The inhibition rate was calculated using the following formula: […]
Note: ‘Negative’ refers to the group without the inhibitor; ‘Blank’ refers to the group without the enzyme.
The IC50 value was calculated by fitting the inhibition rate by GraphPad Prism software, employing log (inhibitor) vs. response-Variable Slope (four parameters) model.

HDAC8 = HDAC8 (Homo sapiens (Human), UniProt Q9BY41); assay: In vitro enzyme inhibition assay - HDAC (HDAC-Glo I/II), HDAC8; type: biochemical; details: read-out: HDAC IC50 (nM) HDAC 8
Summary of the method: as §1

NCI-H1417 cells = assay: In vitro cell inhibition assay - H1417 cell proliferation (CellTiter-Glo); type: cell-based; details: Homo sapiens, NCI-H1417, H1417 small cell lung cancer cell proliferation
Summary of the method: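 Cells exposed to 8 compound concentrations (5-fold dilutions) in BEGM with 10% FBS for 7 days at 37° C., 5% CO2. Viable cells measured by CellTiter-Glo luminescence; inhibition versus no-inhibitor and no-cell controls, IC50 fitted.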

NCI-H69 cells = assay: In vitro cell inhibition assay - NCI-H69 cell proliferation (CellTiter-Glo); type: cell-based; details: Homo sapiens, NCI-H69, H69 small cell lung cancer cell proliferation
Summary of the method: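 Cells seeded at 1×10^3 per well and incubated overnight at 37° C., 5% CO2, then treated with 8-point 5-fold compound dilutions in RPMI-640 with 20% FBS for 7 days. Viable cells measured by CellTiter-Glo luminescence; IC50 fitted from inhibition relative to no-inhibitor and no-cell controls.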

NCI-H526 cells = assay: In vitro cell inhibition assay - NCI-H526 cell proliferation (CellTiter-Glo); type: cell-based; details: Homo sapiens, NCI-H526, 120 h, H526 small cell lung cancer cell proliferation, 5 days
Summary of the method: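 NCI-H526 cells plated at 1×10^3 per well overnight, then treated with 8 concentrations (5-fold dilutions) in RPMI-640 with 10% FBS for 5 days at 37° C., 5% CO2. Viable cells quantified by CellTiter-Glo luminescence; IC50 fitted from inhibition rates relative to no-inhibitor and no-cell controls.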

HDAC1, sequence (Q13547 whole entry): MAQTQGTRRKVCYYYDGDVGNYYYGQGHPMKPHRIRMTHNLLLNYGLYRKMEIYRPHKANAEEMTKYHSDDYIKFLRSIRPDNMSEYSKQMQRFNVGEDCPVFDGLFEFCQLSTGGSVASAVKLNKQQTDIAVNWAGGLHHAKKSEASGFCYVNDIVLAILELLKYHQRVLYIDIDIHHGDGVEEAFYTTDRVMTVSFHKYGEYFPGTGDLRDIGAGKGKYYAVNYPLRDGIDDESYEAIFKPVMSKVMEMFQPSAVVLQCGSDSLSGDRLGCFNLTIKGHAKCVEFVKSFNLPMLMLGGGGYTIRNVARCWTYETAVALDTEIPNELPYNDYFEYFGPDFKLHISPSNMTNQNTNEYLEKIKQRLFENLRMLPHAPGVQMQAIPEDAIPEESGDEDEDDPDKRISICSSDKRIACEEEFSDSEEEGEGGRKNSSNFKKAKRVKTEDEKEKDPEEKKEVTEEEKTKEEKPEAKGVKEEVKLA
HDAC8, sequence (Q9BY41 whole entry): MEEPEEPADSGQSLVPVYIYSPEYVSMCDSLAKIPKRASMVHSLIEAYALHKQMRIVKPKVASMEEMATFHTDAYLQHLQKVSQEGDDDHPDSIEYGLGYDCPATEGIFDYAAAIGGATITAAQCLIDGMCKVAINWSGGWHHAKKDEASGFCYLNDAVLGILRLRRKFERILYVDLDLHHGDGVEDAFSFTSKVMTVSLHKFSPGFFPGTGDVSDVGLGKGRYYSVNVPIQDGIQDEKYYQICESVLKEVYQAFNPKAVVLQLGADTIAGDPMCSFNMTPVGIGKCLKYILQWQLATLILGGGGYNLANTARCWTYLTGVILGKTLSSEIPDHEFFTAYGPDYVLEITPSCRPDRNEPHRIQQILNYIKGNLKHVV

Compound	pIC50 (LSD1)	IC50 (pan-HDAC) [nM]	IC50 (HDAC1) [nM]	IC50 (HDAC8) [nM]	pIC50 (NCI-H1417 cells)	pIC50 (NCI-H69 cells)	pIC50 (NCI-H526 cells)
N#Cc1ccc(-c2c(-c3ccc(/C=C/C(=O)NO)c(O)c3)cnc(N3CCC(N)CC3)c2C#N)cc1F [Example 62, (E)-3-(4-(6-(4-Aminopiperidin-1-yl)-5-cyano-4-(4-cyano-3-fluorophenyl)pyridin-3-yl)-2-hydroxyphenyl)-N-hydroxyacrylamide hydrochloride]	9.31	5.53	17.3	3190	8.01	5.49	5.92
COc1ccc(-c2cnc(N3CCC(NC(C)(C)c4ccc(/C=C/C(=O)NO)cc4)CC3)c(C#N)c2-c2ccc(C#N)c(F)c2)cc1O [Example 179, (E)-3-(4-(2-((1-(3-Cyano-4-(4-cyano-3-fluorophenyl)-5-(3-hydroxy-4-methoxyphenyl)pyridin-2-yl)piperidin-4-yl)amino)propan-2-yl)phenyl)-N-hydroxyacrylamide formate]	7.00	3.1	1.74	374	8.44	8.56	8.35
N#Cc1ccc(-c2c(-c3ccc4cn[nH]c4c3)cnc(N3CCC(NCc4cnc(/C=C/C(=O)NO)nc4)CC3)c2C#N)cc1F [Example 184, (E)-3-(5-((1-(3-Cyano-4-(4-cyano-3-fluorophenyl)-5-(1H-indazol-6-yl)pyridin-2-yl)piperidin-4-yl)amino)methyl) pyrimidin-2-yl)-N-hydroxyacrylamide formate]	10.05	6.58	1.69	45.2	7.99	8.05	7.80
CC(C)(O)COc1ccc(-c2cnc(N3CCC(NCc4cnc(/C=C/C(=O)NO)nc4)CC3)c(C#N)c2-c2ccc(C#N)c(F)c2)cc1O [Example 187, (E)-3-(5-(((1-(3-Cyano-4-(4-cyano-3-fluorophenyl)-5-(3-hydroxy-4-(2-hydroxy-2-methylpropoxy)phenyl)pyridin-2-yl)piperidin-4-yl)amino)methyl)pyrimidin-2-yl)-N-hydroxyacrylamide formate]	8.39	3.71	1.98	15.5	8.31	7.83	7.68
CC(C)(O)COc1ccc(-c2cnc(N3CCC(NCc4ccc(CCC(=O)NO)cc4)CC3)c(C#N)c2-c2ccc(C#N)c(F)c2)cc1O [Example 188, 3-(4-(((1-(3-Cyano-4-(4-cyano-3-fluorophenyl)-5-(3-hydroxy-4-(2-hydroxy-2-methylpropoxy)phenyl)pyridin-2-yl)piperidin-4-yl)amino)methyl)phenyl)-N-hydroxypropanamide formate]	9.52	5.07	3.06	198	8.76	7.53	7.09
CC(C)(O)COc1ccc(-c2cnc(N3CCC(NCc4ccc(/C=C/C(=O)NO)c(C#N)c4)CC3)c(C#N)c2-c2ccc(C#N)c(F)c2)cc1O [Example 189, (E)-3-(2-Cyano-4-((1-(3-cyano-4-(4-cyano-3-fluorophenyl)-5-(3-hydroxy-4-(2-hydroxy-2-methylpropoxy)phenyl)pyridin-2-yl)piperidin-4-yl)amino)methyl) phenyl)-N-hydroxyacrylamide formate]	8.39	7.8	13.4	130	8.20	7.41	7.56
COc1ccc(-c2cnc(N3CCC(NCc4ccc(CCC(=O)NO)nc4)CC3)c(C#N)c2-c2ccc(C#N)c(F)c2)cc1O [Example 191, 3-(5-(((1-(3-Cyano-4-(4-cyano-3-fluorophenyl)-5-(3-hydroxy-4-methoxyphenyl)pyridin-2-yl)piperidin-4-yl)amino)methyl)pyridin-2-yl)-N-hydroxypropanamide formate]	8.65	2.17	0.54	37.5	8.47	7.61	7.59
COc1cc(F)c(-c2cnc(N3CCC(NCc4ccc(/C=C/C(=O)NO)cn4)CC3)c(C#N)c2-c2ccc(C#N)nc2)cc1O [Example 240, (E)-3-(6-(((1-(3′,6-Dicyano-5′-(2-fluoro-5-hydroxy-4-methoxyphenyl)-[3,4′-bipyridin]-2′-yl)piperidin-4-yl)amino)methyl)pyridin-3-yl)-N-hydroxyacrylamide formate]	9.09	4.73	1.85	–	8.02	7.61	7.22

Other lines, results leading:

pIC50 (LSD1)	IC50 (pan-HDAC) [nM]	IC50 (HDAC1) [nM]	IC50 (HDAC8) [nM]	pIC50 (NCI-H1417 cells)	pIC50 (NCI-H69 cells)	pIC50 (NCI-H526 cells)	Compound
9.89	2.11	0.08	75.1	8.53	7.88	7.55	COc1ccc(-c2cnc(N3CCC(NCc4ccc(OCC(=O)NO)cc4)CC3)c(C#N)c2-c2ccc(C#N)c(F)c2)cc1O [Example 181]
10.05	3.02	1.3	30.1	8.03	8.36	8.15	N#Cc1ccc(-c2c(-c3ccc4cn[nH]c4c3)cnc(N3CCC(NCc4ccc(/C=C/C(=O)NO)nc4)CC3)c2C#N)cc1F [Example 182, (E)-3-(5-(((1-(3-Cyano-4-(4-cyano-3-fluorophenyl)-5-(1H-indazol-6-yl)pyridin-2-yl)piperidin-4-yl)amino)methyl)pyridin-2-yl)-N-hydroxyacrylamide formate]
8.53	7.81	1.86	–	8.24	8.24	7.95	N#Cc1ccc(-c2c(-c3ccc(Cl)c(O)c3)cnc(N3CCC(NCc4ccc(/C=C/C(=O)NO)cc4F)CC3)c2C#N)cn1 [Example 241, (E)-3-(4-(((1-(5′-(4-Chloro-3-hydroxyphenyl)-3′,6-dicyano-[3,4′-bipyridin]-2′-yl)piperidin-4-yl)amino)methyl)-3-fluorophenyl)-N-hydroxyacrylamide formate]
7.87	1.74	0.6	–	7.98	8.49	7.97	COc1ccc(-c2cnc(N3CCC(NCc4ccc(/C=C/C(=O)NO)cc4)CC3)c(C#N)c2-c2cnc(C#N)c(OC)c2)cc1O [Example 243, (E)-3-(4-(((1-(3′,6-Dicyano-5′-(3-hydroxy-4-methoxyphenyl)-5-methoxy-[3,4′-bipyridin]-2′-yl)piperidin-4-yl)amino)methyl)phenyl)-N-hydroxyacrylamide hydrochloride]
9.01	1.54	0.51	–	8.55	8.78	7.79	N#Cc1ccc(-c2c(-c3ccc(N4CCOCC4)c(O)c3)cnc(N3CCC(NCc4ccc(/C=C/C(=O)NO)cc4)CC3)c2C#N)cn1 [Example 244, (E)-3-(4-(((1-(3′,6-Dicyano-5′-(3-hydroxy-4-morpholinophenyl)-[3,4′-bipyridin]-2′-yl)piperidin-4-yl)amino)methyl)phenyl)-N-hydroxyacrylamide formate]
8.46	0.87	0.84	–	8.31	8.50	8.12	COc1ccc(-c2cnc(N3CCC(NCc4ccc(/C=C/C(=O)NO)cc4)CC3)c(C#N)c2-c2cnc(C#N)c(C)c2)cc1O [Example 247, (E)-3-(4-(((1-(3′,6-Dicyano-5′-(3-hydroxy-4-methoxyphenyl)-5-methyl-[3,4′-bipyridin]-2′-yl)piperidin-4-yl)amino)methyl)phenyl)-N-hydroxyacrylamide formate]
9.09	0.62	0.61	–	8.27	8.40	8.04	COc1ccc(-c2cnc(N3CCC(NCc4ccc(/C=C/C(=O)NO)cc4)CC3)c(C#N)c2-c2ccc([N+](=O)[O-])nc2)cc1O [Example 248, (E)-3-(4-(((1-(3′-Cyano-5′-(3-hydroxy-4-methoxyphenyl)-6-nitro-[3,4′-bipyridin]-2′-yl)piperidin-4-yl)amino)methyl)phenyl)-N-hydroxyacrylamide formate]
